Several values for one entry are separate records, joined by “and”; a condition that tells them apart may be missing. Identical values can stand only once. Like-named read-outs stand apart in the source and are kept apart here.
Key:
[1] = target: T1, Human GGT1 (hGGT) (Homo sapiens, UniProt P19440); test: D-GpNA Hydrolysis Assay (release of pNA, 405 nm, pH 7.4); conditions: for Vo (maximum velocity at zero activator) / V∞ (maximum rate at infinite activator): Hydrolysis D-GpNA, Table 3; for maximal fold induction: human; for fold less effective than OU749 in inhibiting hydrolysis of D-GpNA: relative to OU749
Method: Enzyme Isolation: Human GGT1 (P19440), lacking the transmembrane domain, was expressed in Pichia pastoris and isolated as previously described (14). […] One unit of GGT activity was defined as the amount of enzyme that released 1 μmol of paranitroaniline/min at 37° C. at pH 7.4 in the transpeptidation reaction.
The reaction was initiated with the addition of 19 mU GGT. The reaction was incubated at 37° C. and monitored continuously at 405 nm by a Bio-Rad model 680 microplate reader with Microplate Manager 5.2 software (Bio-Rad, Hercules, Calif.).
Data Analysis: Samples in each experiment were run in triplicate. Each inhibitor was evaluated in two or more independent experiments. Double reciprocal plots were generated to assess data quality and determine the correct rate equation for data fitting. Data were fitted using the proper rate equation and the Marquardt-Levenberg algorithm supplied with the Enzfitter program (BIOSOFT, Cambridge, UK). Kinetic parameters with standard errors were estimated using a simple weighting method.
Data adhering to Michaelis-Menten Kinetics were fitted to eq. 1. Data for initial rate patterns with D-, L-GpNA varied at different fixed levels of glygly were fitted to eq. […] Data for competitive and uncompetitive inhibition were fitted to eqs. 3 and 4. Data for the dependence of Vmax and Vmax/KD-GpNA on the concentration of activator were fitted using eq. 5 (25).
In eqs 1-6, Vmax are the initial and maximum rates, respectively, Ka and Kb are Michaelis constants for substrates A and B, respectively, and Kis and Kii are slope and intercept inhibition constants. In eq. 5, a is the value of Vmax or Vmax/KD-GpNA at zero activator/inhibitor, KID is the activation or inhibition constant, and KIN is a constant that causes the parameter to go to a constant value at infinite concentrations of X, the activator/inhibitor. The product a(KID/KIN) is the value of Vmax or Vmax/KD-GpNA at infinite activator/inhibitor (25). Data for noncompetitive inhibition were fitted to eq. 6. Data for the dependence of Vmax and Vmax/KD-GpNA on the concentration of activator were fitted using […].
Enzyme Isolation: hGGT (P19440), lacking the transmembrane domain, was expressed in Pichia pastoris and isolated as previously described. […] One unit of GGT activity was defined as the amount of enzyme that released 1 μmol of paranitroaniline/min at 37° C. at pH 7.4 in the transpeptidation reaction with L-GpNA.
D-GpNA Hydrolysis Assay: The assay was carried out as previously described. […] The reaction was initiated with the addition of 19 mU GGT as determined by the L-GpNA transpeptidation assay. The reaction was incubated at 37° C. and monitored continuously at 405 nm.

[2] = target: T1, Human GGT1 (hGGT); test: L-GpNA Transpeptidation Assay with GlyGly as acceptor; format: biochemical; design: lacking the transmembrane domain; made in house; host or cells: Pichia pastoris; conditions: for fold change in L-GpNA Kii (transpeptidation) relative to Compound 16: weaker than Compound 16
Method: Transpeptidation Reaction: The same assay buffer was used for both the hydrolysis reaction and the transpeptidation reaction. The transpeptidation reaction included 40 mM glycylglycine (glygly, Sigma, St. Louis, Mo.) as the acceptor. […] The concentration of L-GpNA was 3 mM for experiments in which the concentration of glygly was varied. To initiate the transpeptidation reaction, 4 mU GGT were added.
1. […] 3 and 4. […] 5 (25).
L-GpNA Transpeptidation Assay: The assay has been described previously. […] The concentration of L-GpNA was 3 mM for experiments in which the concentration of GlyGly was varied. To initiate the transpeptidation reaction, 4 mU GGT were added.

[3] = target: T2, hGGT (Homo sapiens, UniProt P19440); test: L-Glutamate Release Assay (Hydrolysis of GSH); format: biochemical; conditions: for Ki: GSH hydrolysis, read-out: GSH Kii
T2 construct: lacking the transmembrane domain; made in house; host or cells: Pichia pastoris
Method: L-Glutamate Release Assay (Hydrolysis of GSH): This assay measures the production of glutamate from the hydrolysis of GSH by GGT enzyme and has been described in detail previously. The concentration of the substrate, GSH, was varied from 5 μM to 20 μM. The concentration of the inhibitors, OU749 and its analogs, were varied from 15.6 μM to 250 μM. The reaction was initiated with the addition of 10 mU hGGT. […] All compounds were also evaluated as inhibitors of glutamate dehydrogenase, the enzyme in the second half of the L-glutamate release assay. None of the compounds in this study inhibited glutamate dehydrogenase.

[4] = Table 5, read-out: GlyGly with L-GpNA Kis
[5] = Table 5, read-out: L-GpNA with GlyGly Kii
[6] = pH 7.4, read-out: Fold Activation
[7] = read-out: activation of the Vmax for hydrolysis (V∞/Vo)
[8] = Table 3, read-out: Transpeptidation GlyGly Kis
[9] = GlyGly varied, 3 mM L-GpNA, Table 2, read-out: Transpeptidation GlyGly Kis
[10] = Table 3, read-out: Transpeptidation L-GpNA Kii
[11] = Table 4, read-out: L-GpNA with GlyGly Kii
[12] = L-GpNA varied, 40 mM GlyGly, Table 2, read-out: Transpeptidation L-GpNA Kii

T2 sequence (P19440 381-569 limits assumed): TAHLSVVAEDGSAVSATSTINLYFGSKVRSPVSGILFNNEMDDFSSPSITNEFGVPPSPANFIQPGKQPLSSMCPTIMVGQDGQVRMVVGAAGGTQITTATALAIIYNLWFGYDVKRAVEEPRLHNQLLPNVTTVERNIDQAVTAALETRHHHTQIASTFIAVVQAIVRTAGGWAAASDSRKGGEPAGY
T2 sequence (P19440 27-380 limits assumed): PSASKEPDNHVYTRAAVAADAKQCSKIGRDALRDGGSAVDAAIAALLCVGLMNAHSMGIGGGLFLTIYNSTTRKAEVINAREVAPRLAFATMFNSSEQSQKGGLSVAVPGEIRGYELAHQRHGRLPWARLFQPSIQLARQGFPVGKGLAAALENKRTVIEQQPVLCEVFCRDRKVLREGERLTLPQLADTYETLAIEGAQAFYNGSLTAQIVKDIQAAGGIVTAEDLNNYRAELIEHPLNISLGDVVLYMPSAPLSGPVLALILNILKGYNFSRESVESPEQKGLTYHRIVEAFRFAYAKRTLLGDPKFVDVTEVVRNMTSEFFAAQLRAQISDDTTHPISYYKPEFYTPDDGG
T1 sequence (P19440 381-569 limits assumed): as the sequence (P19440 381-569 limits assumed) above
T1 sequence (P19440 27-380 limits assumed): as the sequence (P19440 27-380 limits assumed) above

Row | SMILES | Ki [1] [µM] | Vo (maximum velocity at zero activator) [1] [mM/min/nM] | V∞ (maximum rate at infinite activator) [1] [mM/min/nM] | maximal fold induction [1, 6] | maximal fold induction [1, 7] | Ki [2, 8] [µM] | Ki [2, 9] | Ki [2, 10] [µM] | also measured
1 | COc1ccc(Cc2nnc(NS(=O)(=O)c3ccc4ccccc4c3)s2)cc1 [Compound 30] | 415 ± 50 | – | – | – | – | – | – | – | Ki ([2]; Table 6, read-out: GlyGly with L-GpNA Kis): 143 ± 20 µM; Ki ([2]; Table 6, read-out: L-GpNA with GlyGly Kii): 364 ± 43 µM; Ki ([3]; Table 6): 206 ± 37 µM; fold less potent than Compound 6 in inhibiting catabolism of GSH ([3]; relative to Compound 6): 2.1 fold
2 | Nc1ccc(S(=O)(=O)Nc2nnc(Cc3ccc(Cl)c(Cl)c3)s2)cc1 [Compound 29] | 32 ± 1 | – | – | – | – | – | – | – | decrease of Kis as competitive inhibitor of GlyGly relative to OU749 [2]: up to 11 fold; Ki [2, 4]: 5 ± 1 µM; Ki [2, 5]: 34 ± 4 µM; Ki ([3]; Table 5): 905 ± 53 µM
3 | O=[N+]([O-])c1ccc(S(=O)(=O)Nc2nnc(Cc3ccc(F)cc3)s2)cc1 [Compound 19] | – | 1.53 ± 0.09 | 5.39 ± 0.28 | 3.52 ± 0.6 | 3 to 6 | 31.8 ± 0.7 | – | – | –
4 | COc1ccc(Cc2nnc(NS(=O)(=O)c3ccccc3)s2)cc1 [Compound 1] | – | – | – | – | – | – | 54.1 ± 3.9 µM | – | Ki ([3]; Table 4): 376 ± 50 µM
5 | O=[N+]([O-])c1ccc(S(=O)(=O)Nc2nnc(Cc3ccc(Cl)cc3)s2)cc1 [Compound 16] | – | 1.71 ± 0.09 | 7.70 ± 0.46 | 4.5 ± 0.63 | 3 to 6 | 44.4 ± 3.4 | – | 61.9 | Ki ([2]; Table 7, read-out: L-GpNA with GlyGly Kii): 62 ± 2 µM
6 | COc1ccc(Cc2nnc(NS(=O)(=O)c3ccc(N)cc3)s2)cc1 [Compound 21] | – | – | – | – | – | – | – | – | Ki ([1]; read-out: D-GpNA Kii, Table 4): 31 ± 1 µM; Ki ([2]; Table 4, read-out: GlyGly with L-GpNA Kis): 10 ± 1 µM; Ki [2, 11]: 36 ± 1 µM; Ki ([3]; Table 4): 105 ± 14 µM; fold more potent than OU749 in inhibiting GSH hydrolysis ([3]; relative to OU749): 3.6 fold
7 | O=[N+]([O-])c1ccc(S(=O)(=O)Nc2nnc(Cc3cccc(Cl)c3)s2)cc1 [Compound 15] | – | 1.30 ± 0.01 | 5.86 ± 0.23 | 4.51 ± 0.05 | 3 to 6 | 43.8 ± 7.7 | – | 119 ± 7.1 | fold change in L-GpNA Kii (transpeptidation) relative to Compound 16 [2]: 2 fold
8 | COc1ccc(Cc2nnc(NS(=O)(=O)c3ccc(OC)cc3)s2)cc1 [Compound 9] | 3800 ± 720 | – | – | – | – | – | 133 ± 10.3 µM | – | Ki [2, 11]: 149 ± 23 µM; Ki ([3]; Table 4): > 250 µM
9 | COc1ccc(Cc2nnc(NS(=O)(=O)c3ccc(Cl)cc3Cl)s2)cc1 [Compound 4] | 75.6 ± 7.2 | – | – | – | – | – | 3.7 ± 1 µM | – | Ki [2, 12]: 15.7 ± 0.7 µM; Ki ([3]; Table 6): 950 ± 242 µM
10 | Nc1ccc(S(=O)(=O)Nc2nnc(Cc3ccc(F)cc3)s2)cc1 [Compound 26] | 24 ± 2 | – | – | – | – | – | – | – | Ki [2, 4]: 47 ± 7 µM; Ki [2, 5]: 58 ± 4 µM; Ki ([3]; Table 5): 355 ± 16 µM
11 | Cc1ccc(Cc2nnc(NS(=O)(=O)c3ccc([N+](=O)[O-])cc3)s2)cc1 [Compound 17] | – | 2.62 ± 0.79 | 11.25 ± 4.27 | 4.29 ± 2.2 | 3 to 6 | 56.9 ± 8.3 | – | 113 ± 5.2 | –
12 | O=[N+]([O-])c1ccc(S(=O)(=O)Nc2nnc(Cc3ccccc3)s2)cc1 [Compound 13] | – | 1.59 ± 0.06 | 9.09 ± 0.55 | 5.72 ± 0.32 | 3 to 6 | 59.6 ± 3.7 | – | 111 ± 5.5 | fold change in L-GpNA Kii (transpeptidation) relative to Compound 16 [2]: ~2 fold
13 | O=[N+]([O-])c1ccc(Cc2nnc(NS(=O)(=O)c3ccc([N+](=O)[O-])cc3)s2)cc1 [Compound 14] | – | 1.27 ± 0.01 | 5.08 ± 0.41 | 4 ± 0.11 | 3 to 6 | 81.2 ± 8.8 | – | 132 ± 5.5 | –
14 | N[C@H](C(=O)O)[C@@H]1CC(Cl)=NO1 [acivicin, reference compound] | – | – | – | – | – | – | – | – | kon ([1]; pH 7.4, read-out: kon (second order rate constant)): 2.85 M⁻¹ s⁻¹; kon ([1]; pH 7.4, read-out: kon corrected for the presence of D-GpNA): 8 M⁻¹ s⁻¹
15 | Cc1cccc(Cc2nnc(NS(=O)(=O)c3ccc([N+](=O)[O-])cc3)s2)c1 [Compound 18] | – | 1.15 ± 0.01 | 5.08 ± 0.20 | 4.42 ± 0.64 | 3 to 6 | 34.3 ± 0.9 | – | 121 ± 8.8 | fold change in L-GpNA Kii (transpeptidation) relative to Compound 16 [2]: 2 fold
16 | COc1ccc(Cc2nnc(NS(=O)(=O)c3ccc(NO)cc3)s2)cc1 [Compound 5] | 149 ± 13.6 | – | – | – | – | – | 25.7 ± 1.3 µM | – | fold less effective than OU749 in inhibiting hydrolysis of D-GpNA [1]: 2-5 fold; Ki [2, 12]: 64.4 ± 5.1 µM
17 | NS(=O)(=O)c1ccccc1.[Na] [SBS, Sodium benzenesulfonamide, reference compound] | – | – | – | – | – | – | – | – | fold less effective than OU749 in inhibiting hydrolysis of D-GpNA [1]: more than 2.000 fold; Ki ([2]; SBS, read-out: Kii, transpeptidation, vs L-GpNA): 28800 ± 1600 µM; Ki ([2]; SBS, read-out: Kis, transpeptidation, vs GlyGly): 2280 ± 70 µM
18 | COc1ccc(Cc2nnc(NS(=O)(=O)c3ccc([N+](=O)[O-])cc3)s2)cc1 [Compound 11] | – | 1.59 ± 0.14 | 8.63 ± 1.21 | 5.43 ± 2.04 | – | – | 96 µM and 95.7 µM | – | Ki [2, 12]: 93 µM and 92.8 µM; difference in affinity for D-γ-glutamyl and L-γ-glutamyl enzyme intermediates ([2]; human): 2.5 fold; fold change in GlyGly Kis (transpeptidation) relative to Compound 16 ([2]; increase relative to Compound 16): more than 2 fold; fold change in L-GpNA Kii (transpeptidation) relative to Compound 16 [2]: less than 2 fold
19 | COc1ccc(Cc2nnc(NS(=O)(=O)c3ccc(C(F)(F)F)cc3)s2)cc1 [Compound 12] | – | – | – | – | – | – | 46.3 ± 3.5 µM | – | Ki [2, 12]: 117 ± 7.4 µM
